Measured values taken from publication PMC11311241, “In Situ Forming, Enzyme-Responsive Peptoid-Peptide Hydrogels: An Advanced Long-Acting Injectable Drug Delivery System” (Journal of the American Chemical Society, 2024).
Read-outs that look alike come from different tables or passages of the source.

Experiments:
NCTC 929 cells [1] = type: cell-based, murine; details: 24 h, fluorescence microscopy
Protocol: (§1) Peptoid-peptide cell cytotoxicity studies were performed using the International Standard (ISO) murine fibroblast subcutaneous connective tissue NCTC 929 (ATCC CCL 1) cell line.[108],[116] Cell cytotoxicity was assessed using three separate assays, outlined fully in Section S.7 of the Supporting Information: (i) 3-(4,5-dimethylthiazol-2-yl)-5-(3-carboxymethoxyphenyl)-2-(4-sulfophenyl)-2H-tetrazolium (MTS) colorimetric assay, (ii) lactate dehydrogenase (LDH) release and (iii) a Live/Dead assay. The cytotoxicity of each peptoid-peptide was tested after 6 (LDH, MTS), 24 (Live/Dead, MTS) and 72 h (MTS) of exposure. […]
for a further 5 min. A stop reagent (50 μL) was then added, and the UV absorbance was measured at 490 nm using a Tecan Sunrise plate reader. […]
in absorbance: i) a high LDH release control representing 100% toxicity was generated by adding 5 μL of lysis solution to non-treated cells 15 min before the addition of the test reagent; ii) each peptoid-peptide was solubilized in media at the highest tested concentration (500 μM); iii) the LDH standard was added to the media; and iv) an equal volume of the highest solubilized peptoid-peptide concentration (500 μM) and the LDH standard were added to the media. The percentage of cell cytotoxicity was calculated using Equation 3 below and is reported once again as the mean of nine measurements (three replicates, repeated three times). […]

alkaline phosphatase = details: for Strain at complete deformation (G′ and G″ intersect): strain sweep 0.1–1000%, 2.5 rad s-1, 5% w/v gels; for Strain at which the weaker network breaks / Strain at which the stronger second network or entanglement breaks: strain sweep, 5% w/v gels; for Strain at which the weaker network breaks: first deformation; for Strain at which the stronger second network or entanglement breaks: second deformation
Excerpt: Our drug delivery system is partly defined by drug diffusion from the hydrogel matrix, and hydrolysis of the peptoid-peptide-drug chemical linker. Reproducing supramolecular gels’ mechanical properties is difficult, especially for peptide-based systems. Experimental parameters and formulation factors are particularly important, as highlighted recently by the Adams and Draper groups.[77],[78] Subtle experimental influences e.g. handling and temperature, can lead to issues with reproducibility. […] Loss (G″) and storage (G′) moduli, critical strain (%) and oscillatory time sweeps were performed to determine the rheological changes with time and the potential for rapid in situ hydrogel depot formation upon exposure to 3.98 U mL^–1 phosphatase enzyme. […] Hydrogel formation occurs when the storage modulus (G′) is at least 1 order of magnitude greater than the loss modulus (G″).[79]
Rapid gelation is important for in situ formation of drug delivery depots to reduce the diffusion of drug(s) from the depot and potential burst release. Quick gelation after injectable administration is also important for our system in order to reduce the availability of the peptoid-peptide ester linkage with the drug to water within the subcutaneous space, providing a diffusion barrier to rapid drug cleavage by hydrolysis.[84] There are several ways in which time for gelation can be defined: a) the time at which the storage modulus (G′) and loss modulus (G″) cross indicating greater solid-like behavior; b) the time point at which G′ is greater by 1 order of magnitude than G″; and c) the time at which G′ and G″ begin to stabilize/plateau. […]
(i) peptoid-peptide sequence dissolved in PBS prior to addition of 2 U alkaline phosphatase, (ii) after 2 U alkaline phosphatase addition and formulation as outlined in Table S2.
S.4. Oscillatory rheology
Anton Paar MCR302 rheometer (Anton Paar, St Albans, UK). Gels were formulated at a 2 mL volume in 7 mL Sterilin ™ vials as previously described .8 A vane and cup geometry was used to perform both frequency and strain sweeps. Frequency sweeps were performed at 37 °C from 1 – 100 rad s-1 at a strain of 0.5%. […] sweeps were perform ed at 37°C, 2.5 rad s-1 and a strain of 0.1 – 1000%. Gel strength was measured by determining the strain at which the gels […]
Table S3. Gelation times for peptoid-L-peptide and peptoid-D-peptide hydrogels upon addition of alkaline phosphatase enzyme derived from data in Figures S25 – S27 S40 and […]
* Mean value of storage modulus (G′) and loss modulus (G″) for each peptoid-peptide derived

[2] = In vitro zidovudine release from hydrogels in PBS, with KinetDS modelling; type: physicochemical
Excerpt: This is typical of physically encapsulated drug release systems, which are prone to drug leakage and a high burst release.[8],[95] The release profile was monitored over the entire 28 day profile. […] Physically encapsulated systems are more applicable to acute drug delivery applications where rapid treatment, such as pain relief, is required at a high dose for a shorter time period. […] Drugs are released from the hydrogel systems in an unmodified form via simple hydrolysis of the drug-ester linkage under physiological conditions. In practice, diffusion through the peptoid-peptide hydrogel matrix and into the surrounding fluid would enable uptake into the systemic circulation. […] There appears to be a link between gelation times for peptoid-L-peptide and peptoid-D-peptide hydrogels, defined by rheological time sweeps (Figures 2f, S25c–f and Table S3). […] It is well established that rapid gel formation minimizes burst release of drug and this is especially relevant to our system,[96] whereby the presence of a gel should act as a diffusional barrier, reducing the ability of water to hydrolyze the covalent ester linkage between peptoid-peptide and drug.
KinetDS software was utilized to further understand the drug release kinetics of these novel peptoid-peptide hydrogel platforms. Various kinetic models, including zero-order, first-order, Korsmeyer–Peppas, Hixson–Crowell, Higuchi and Weibull models were applied to determine the mechanism of drug release. […] For injectable hydrogel-forming depots quantified by cumulative release, zero-order, first-order and Korsmeyer–Peppas models tend to be the most relevant for establishing the mechanism of drug release kinetics. The Higuchi model applies to drug release driven mainly by diffusion only and it is accepted that this model should not be used when hydrogel swelling may be a factor in release.[97]−[99] […] The Weibull model is associated more with nanoparticles and heterogeneous formulations; however its application in model injectable hydrogels is increasing.[101],[102] […] This indicates super case II transport (n > 0.85), whereby the drug is mainly released through the erosion of the polymer matrix and/or possibly hydrolysis of the ester-drug linkage where present.[99],[103]

NCTC 929 cells [3] = assay: MTS cell viability / metabolic activity assay; type: cell-based, murine; details: fully solubilized, 500 μM, 6, 24 and 72 h, vs media-only control, nine replicates
Protocol: as §1
The MTS-based CellTiter 96 AQueous One Solution Cell Proliferation Assay (Promega, Southampton, UK) was used to analyze the metabolic activity of treated cells.3 UV absorption was measured at 490 nm using a Tecan Sunrise plate reader (Tecan UK Ltd, Reading, UK) and cell viability/percentage metabolic activity was calculated as outlined in Equation 2 below. […]
LDH release was quantified as a measure of cytotoxicity using a Cytotoxicity Detection KitPLUS assay (Sigma-Aldrich, Dorset, UK) as previously described.13 The cells were incubated, with each solubilized peptoid-peptide (20 – 500 μM) in combination with NCTC 929 cells for 6 hours, after which 100 μL of test reagent was added to each well, and incubated

[4] = rats
Protocol: Female Sprague–Dawley rats (n = 18, aged 8–10 weeks, mean weight = 220 g) were purchased from Envigo and acclimatized for 1 week prior to experimentation.
This treatment was then administered intravenously to the tail vein (8.46 mg kg−1).15 The
extraction from blood plasma samples was possible. The peptoid-D-peptide experimental
injectable solution was formed by dissolving lyophilized UV-sterilized
mL) were obtained from the tail vein of each rat and collected in 1.5 mL preheparinized
group. Centrifugation (13,400 rpm, 10 min) was utilized to separate blood plasma
be analyzed via analytical RP-HPLC and a validated calibration curve (Figure S35) as outlined
The pharmacokinetic parameters were calculated using PKSolver 2.0.16, 17 The
parameters studied were the drug half-life (t1/2), the time to peak drug concentration (Tmax), the
maximum plasma concentration (Cmax), the area under the plasma concentration – time curve
from time zero to the last quantifiable concentration on day 35 (AUC0−35), the observed area
under the plasma concentration – time curve extrapolated from time zero to infinity (AUC0-
∞,obs) and the mean residence time (MRT) of the drug extrapolated from time zero to infinity.

HIV = details: cited from earlier work
[5] = 5% w/v hydrogel, PBS pH 7.4, 37 °C, n = 3
[6] = KinetDS fit of 28 day release profile
[7] = 5% w/v, 1–100 rad s-1, strain 0.5%, 37 °C, mean
[8] = plasma zidovudine, IV 8.46 mg kg−1, mean ± SEM, n = 6

For “(NPhe)4GGGGky(p)-OH [tetrabenzylamine-tetraglycine-D-lysine-O-phospho-D-tyrosine]”, the “Live/Dead staining result at 500 μM” value (NCTC 929 cells [1]) was “demonstrated cytotoxicity”, the “G′ from frequency sweeps” value (alkaline phosphatase; 5% w/v) was roughly 2030 Pa and the “Strain at complete deformation (G′ and G″ intersect)” value (alkaline phosphatase; 37 °C) was roughly 192%. The “Strain at which the weaker network breaks” value (alkaline phosphatase) was roughly 0.527% and the “Strain at which the stronger second network or entanglement breaks” value (alkaline phosphatase) was roughly 4.81%.

For “(NPhe)4GGGGK(AZT)Y-OH [peptoid-L-peptide hydrogel, chemically conjugated drug]”, the “Strain at complete deformation (G′ and G″ intersect)” value (alkaline phosphatase; 37 °C) was roughly 44%, the “Strain at which the weaker network breaks” value (alkaline phosphatase) was roughly 4% and the “Strain at which the stronger second network or entanglement breaks” value (alkaline phosphatase) was roughly 17.5%. The “Cumulative zidovudine released in the first 72 h” value ([2]; 5% w/v hydrogel, PBS pH 7.4, 37 °C, % of loaded drug, n = 3) was 14.2%, the “Cumulative zidovudine released at the final time point (28 days)” value [2, 5] was 15.9% and the “Cumulative zidovudine released within the first 30 min” value [2, 5] was 11.04%. For the same compound, the “Weibull model shape factor β” value [2, 6] was 0.9550±0.11, the “Weibull model α” value [2, 6] was 5.362±0.75 and the “Reduction of drug release in the first 72 h versus physical encapsulation” value ([2]; PBS pH 7.4, 37 °C, chemically conjugated vs physically encapsulated zidovudine) was roughly 88%.

In the case of “tetrabenzylamine-tetraglycine-L-lysine-O-phospho-L-tyrosine [(NPhe)4GGGGKY(p)-OH]”, the “Live/Dead staining result at 500 μM” value (NCTC 929 cells [1]) is reported as “no observable cytotoxic effects on live cells”.

In the case of “(NPhe)4GGGGKY-OH [dephosphorylated peptoid-L-peptide hydrogel]”, the “Strain at which the weaker network breaks” value (alkaline phosphatase) is reported as roughly 5.78%, the “Strain at which the stronger second network or entanglement breaks” value (alkaline phosphatase) is reported as roughly 36.5% and the “Weibull model shape factor β” value [2, 6] is reported as 0.9550.

With “(NPhe)4GGGGK(AZT)Y(p)-OH [peptoid-L-peptide covalently attached to zidovudine via an ester linkage at the lysine position]” the “Mean loss modulus (G″) from frequency sweeps” value (alkaline phosphatase; [7]) was 112.18, the “Mean storage modulus (G′) from frequency sweeps” value (alkaline phosphatase; [7]) was 856.11 and the “Tan δ = G″/G′ from freq sweeps” value (alkaline phosphatase; 5% w/v, frequency sweeps 1–100 rad s-1, strain 0.5%, 37 °C, from mean moduli) was 0.131. For the same compound, the “Gelation time: G′ and G″ cross” value (alkaline phosphatase; 5% w/v, time sweep after addition of 3.98 U mL-1 alkaline phosphatase, n = 3) was no more than 1 min, the “Time for G′ and G″ to stabilize” value (alkaline phosphatase; 5% w/v, time sweep after addition of alkaline phosphatase) was 135 min and the “Effect on cell metabolic activity (MTS) at 500 μM” value (NCTC 929 cells [3]) was “cell toxicity was once again demonstrated only after 72 h”.

With Cc1cn([C@H]2C[C@H](N=[N+]=[N-])[C@@H](CO)O2)c(=O)[nH]c1=O [zidovudine] the “MRT0-∞,obs” value [4, 8] was “approximately 1.58 hour”, the Tmax [4, 8] was 34.8 ± 4.8 min and the “MRT0-∞,obs” value ([4]; plasma zidovudine, IV 8.46 mg kg−1, mean ± SEM, n = 6, listed as Zidovudine) was 1.58 ± 0.50 h. For the same compound, the “Time to undetectable plasma levels” value ([4]; IV control) was no more than 6 h, the “Plasma peak zidovudine concentration” value ([4]; IV control, mean plasma profile (Figure 5a), n = 6) was 7,500 ng mL–1 and the IC90 range (HIV; 90% maximal inhibitory concentration) was 30–130 ng mL–1. For the same compound, the “four times IC90 value (pharmacokinetic benchmark for HIV protection)” value (HIV) was 120 ng mL–1.
